These results are taken from US20170021014A1, “VACCINE ADJUVANTS FOR CYTOMEGALOVIRUS PREVENTION AND TREATMENT” (THE JOHNS HOPKINS UNIVERSITY, priority 2015, published 2017).

For one test, the system named is MCMV (Smith strain). As to the kind of experiment: MCMV infection of BALB/c mice. The test is classed as in vivo, mouse. The conditions noted are these: after infection, 10 mg/kg twice daily for 5 days. On the procedure:
Animal work was carried out in strict accordance with the recommendations in the Guide for the Care and Use of Laboratory Animals of the National Institutes of Health. The animal protocol (number MO13M296) was approved by the Institutional Animal Care and Use Committee (IACUC) of Johns Hopkins University. For infection experiments 3-4 week old BALB/c mice were purchased from Harlan Laboratories (Indianapolis, Ind.). […] IMMUNOL. 980-86 (2011)) or saline intraperitoneally. Blood was collected 4 h after the second dose of iE-DAP for measurement of RANTES by ELISA (R&D Biosystems, Minneapolis, Minn.). Mice were infected with 10^6 PFU tissue culture derived MCMV (Smith strain, ATCC, VR-1399) and scarified after 14 days. Intracardiac blood was collected prior to sacrifice for gB real-time PCR assay (Vliegen et al., 98(1) VIRUS RES. 17-25 (2003)). Salivary glands, liver and spleen were harvested and stored at −80° C. Organs were homogenized in DMEM at a final concentration of 100 mg/mL Two million mouse embryonic fibroblast (MEFs) were seeded into 24-well plates. From each sample, 2.5% of the salivary gland or 10% of liver/spleen homogenate was used for infection of MEFs in triplicates. Plaques were counted after three days.
At 14 days' post infection mice were scarified, intracardiac blood was collected and tissue homogenates were prepared for plaque assays.

The next test relates to HIV-1. The conditions noted are these: acutely infected monocyte-derived macrophages and dendritic cells; cited from earlier work.
Test [1] relates to pp28-luciferase Towne strain. As to the kind of experiment: pp28-luciferase HCMV replication assay (first and second cycle). The test is classed as cell-based, human cytomegalovirus. On the procedure:
Human Foreskin Fibroblasts (HFFs) passage 12-16 (ATCC, CRL-2088™) were grown in Dulbecco's Modified Eagle Medium (DMEM) containing 10% fetal bovine serum (FBS) (Gibco, Carlsbad, Calif.) in a 5% CO2 incubator at 37° C. The generation of NOD2-KD HFFs (HFF-shNOD2) and control cells (HFF-GIPZ) was reported. One day prior to infection or treatment, 8×10^4 cells were seeded into each well of 12-well tissue culture plates. Multiplicities of infection were specified for each experiment. The Towne HCMV strain was obtained from ATCC (VR-977). The pp28-luciferase Towne strain which expresses luciferase under the control of the pp28 late promoter has been described. Luciferase activity was measured at 72 or 96 hours post infection (hpi) using the Glomax-Multi+ Detection System (Promega, Madison, Wis.). In second cycle replication assays cell free supernatants from HFFs infected with pp28-luciferase Towne were collected 4 days post completion of first replication cycle (5-10% of total volume/well), and used for infection of fresh HFFs seeded into 12-well plates. Cell lysates were collected after 72 h for luciferase activity. Supernatants from the first cycle were also used to measure virus titer in 12-well plates and plaques were counted at day 8 post infection. A purified preparation of the pp28-luciferase Towne strain was prepared by ultracentrifugation using sucrose gradient. The HCMV TB40 strain was obtained from ATCC (VR-1578). Clinical isolates of HCMV were obtained from the microbiology laboratory at Johns Hopkins Hospital with no identifiers that could be linked to a patient. The Johns Hopkins School of Medicine Office of Human Subject Research Institutional Review Board (IRB-X) determined that the research qualified for an exemption.

For `Nc1nc(O)c2ncn(COC(CO)CO)c2n1` [Ganciclovir], the MCMV inhibition result in the test with MCMV (Smith strain) is “inhibited MCMV”. Take `CCCCOC(=O)[C@@H](CCC(N)=O)NC(=O)[C@H](C)NC(=O)[C@@H](C)O[C@H]1[C@H](O)[C@@H](CO)OC(O)[C@@H]1NC(C)=O` (stereo partly shown) [MB, murabutide]: in the test on HIV-1, the HIV-1 replication result was “significantly inhibits HIV-1 replication”. Turning to `C[C@H](N)C(=O)N[C@H](CCC(=O)NC(CCCC(N)C(=O)O)C(=O)O)C(=O)O` (stereo partly drawn) [Tri-DAP, L-Ala-γ-D-Glu-meso-diamino-pimelic acid], the “CMV inhibition (luciferase, protein expression, plaques)” value in test [1] (Tri-DAP 10 μg/mL after infection, 72 hpi) is “results in CMV inhibition”. For the same molecule, the CMV replication entry in test [1] (Tri-DAP 10 μg/mL pretreatment 18 or 72 h, MOI 1) is reported as “inhibits CMV replication”.
